According to patent US20240050409A1, “Methods and Compositions for Treating Psychotic Disorders” (SOUND PHARMACEUTICALS INCORPORATED, priority 2014, published 2024):
“Also recorded” adds a separate entry of the source.

Test system: NVHL rats
Assay: Prepulse inhibition of the acoustic startle response (PPI) in NVHL rats
Format: in vivo, Sprague-Dawley rats
Details: adult NVHL rats
Experimental: To assess whether juvenile oxidative stress leads to behavioral deficits, a behavioral paradigm was used for testing in both animal models and schizophrenia patients. Prepulse inhibition of the acoustic startle response (PPI) is a measure of sensorimotor gating that is reduced in patients (Geyer and Braff, 1987) and NVHL rats (Lipska et al., 1995). PPI was tested in adult sham (n=11), NAC-treated sham (n=12), NVHL (n=9), and NAC-treated NVHL rats (n=17). In addition to loss of PVI maturation and electrophysiological anomalies, developmental oxidative stress in juvenile NVHL rats can cause schizophrenia-relevant adult behavioral deficits.
The beneficial effect of NAC treatment includes a large postnatal treatment that starts prior to the lesion and stops once rats become young adults. For full translational value one determines whether NAC is efficacious when started at an age that corresponds to the time when prodromal stages can be identified in humans. In another set of rats, NAC was administered in the drinking water starting at P35, an age that in rats is equivalent to early adolescence. For PPI deficits was tested in adult SHAM (n=15), untreated NVHL (n=12), and NAC-treated NVHL rats (n=14).
Ebselen is a glutathione peroxidase (GPx) mimic (Muller et al., 1984) that induces GPx expression (Kil et al., 2007) and enhances GSH levels in neurons, replenishing GSH depleted by neurotoxic mechanisms (Pawlas and Malecki, 2007). PPI was tested in adult vehicle-treated SHAM (n=10), Ebselen-treated SHAM (n=7), vehicle-treated NVHL (n=8), and Ebselen-treated NVHL rats (n=9), and Ebselen treatment during adolescence reversed PPI deficits in NVHL rats (as shown in FIG. 15D).
In another group of rats, the effects of the NADPH oxidase inhibitor Apocynin was assessed while delivering through juvenile and adolescent stages. PPI was tested in adult vehicle-treated SHAM (n=10), apocynin-treated SHAM (n=11), vehicle treated NHVL (n=7), and apocynin-treated NVHL (n=5). As illustrated in FIG. 15C a reversal of PPI deficits was observed.
Antioxidant pretreatment regimen: NAC (BioAdvantexPharma, Mississauga, Ontario, Canada) was administered in the drinking water at 900 mg/l. NAC treatment started at P5 or at P35, and previous work in mice has shown that NAC consumed by the dam is transmitted to the pups through her milk (das Neves Duarte et al., 2012). NAC treatment ended at P50. Fresh solutions were prepared every 2-3 days. Ebselen (Sound Pharmaceuticals Inc., Seattle, WA) was administered i.p. 5 days a week starting at P35 until the day of PPI testing (P60). Stock ebselen solution (20 mg/ml DMSO, frozen aliquots) was diluted 1:5 in sterile water and administered at a dose of 10 mg/kg. Control animals received an equivalent concentration of DMSO diluted 1:5 in water. Apocynin (Sigma-Aldrich, St. Louis, MO) was administered in the drinking water at a target dose of 100 mg/kg (Nwokocha et al., 2013). Prior to weaning at P21, drinking water contained a dose of 2 g apocynin per 0.5 1 of water, to ensure delivery through the dam's milk. Apocynin concentration was lowered after weaning to 750 mg/1 to best approximate the target dose. Treatment lasted from P5 to P50 with fresh solutions prepared every other day.
Prepulse inhibition: Starting at P60, both male and female rats were tested for PPI, as described previously (Feleder et al., 2010). As PPI deficits in NVHL rats are most evident when rats are challenged with apomorphine (Lipska et al., 1995), we injected apomorphine (0.1 mg/kg, i.p.) immediately prior to the PPI test session. Rats were placed in a sound- attenuated startle chamber (San Diego Instruments, San Diego, CA) with a 70 dB background white noise. After a 5 min adaptation period, the PPI test was initiated with pseudorandom trials every 15 to 25 seconds. Either pulse (120 dB), prepulse (75 dB, 80 dB, or 85 dB), no pulse or prepulse +pulse were delivered. […]

CC(=O)N[C@@H](CS)C(=O)O [NAC, N-acetyl cysteine]
effect on PPI deficit (apomorphine 0.1 mg/kg i.p. challenge, juvenile treatment P5 to P50, drinking water): prevented; also recorded: completely reversed
effect on PPI deficit (adolescent treatment P35 to P50, drinking water, tested P61): prevented
